In brackets after ≈: the same amount, converted by molar mass.
Tested on: SK-MEL
Experiment: Cytotoxicity against human SK-MEL cells after 48 hrs by neutral red staining
Type: functional, cell-based

Work on C[C@H]1CC[C@@]2(OC1)O[C@H]1C[C@H]3[C@@H]4CC[C@@H]5C[C@@H](O[C@@H]6O[C@H](CO)[C@H](O[C@@H]7O[C@H](CO)[C@@H](O)[C@H](O)[C@H]7O)[C@H](O)[C@H]6O[C@@H]6O[C@@H](C)[C@H](O)[C@@H](O)[C@H]6O)CC[C@]5(C)[C@H]4CC[C@]3(C)[C@H]1[C@@H]2C yielded an IC50 of 6.7 µg/mL (≈ 7.55 µM).

Reference: ChEMBL document CHEMBL1154992, “New steroidal glycosides from the fruits of Tribulus terrestris” (J Nat Prod, 2000)
